In publication PMC7942396, “Drug Repurposing Screen for Compounds Inhibiting the Cytopathic Effect of SARS-CoV-2” (Frontiers in Pharmacology, 2021):
Where a name gives a salt, the structure may show the parent alone. Read-outs that look alike come from different tables or passages of the source.

Legend:
[1] = tested on: SARS-CoV-2 (USA_WA1/2020); test: microbe, parasite or virus in culture; assay type: cell-based
in vitro = conditions: African green monkey
[2] = Severe acute respiratory syndrome coronavirus 2, Vero C1008, SARS-CoV-2 CPE assay, Vero E6 cells, confirmed anti-SARS-CoV-2 compounds, read-out: CPE EC50
[3] = Severe acute respiratory syndrome coronavirus 2, Vero C1008, SARS-CoV-2 CPE assay, Vero E6 cells, efficacy, read-out: CPE % Efficacy
[4] = Severe acute respiratory syndrome coronavirus 2, Vero C1008, SARS-CoV-2 CPE assay, Vero E6 cells, read-out: CPE % Efficacy
[5] = Severe acute respiratory syndrome coronavirus 2, Vero C1008, SARS-CoV-2 CPE assay, Vero E6 cells, read-out: CPE EC50
[6] = Severe acute respiratory syndrome coronavirus 2, Vero C1008, 72 h, read-out: CPE EC50
[7] = Severe acute respiratory syndrome coronavirus 2, Vero C1008, […], DMSO 0%, no-virus control 100%, hit confirmation, read-out: CPE % efficacy

SMILES: CC1CCCCN1CCCOC(=O)c1ccc(OC2CCCCC2)cc1 (stereo not shown) [Cyclomethycaine]
- EC50 [1, 2]: 8.91 µM
- Emax [1, 3]: 79.7%
- CC50 at 72 h (in vitro): 17.8 µM
- cytotoxicity at 72 h (in vitro): 9.6%

SMILES: CN1CCC(=C2c3ccccc3C=Cc3ccccc32)CC1 [Cyproheptadine hydrochloride]
- Emax [1, 3]: 50%
- CC50 (in vitro): 12.6 µM
- cytotoxicity (in vitro): 20.2%

SMILES: CCCCCCCCn1cc(CC(N)=O)c2cc(-c3cccc(C)c3)ccc21 [Cysmethynil]
- EC50 [1, 2]: 11.2 µM
- Emax [1, 3]: 89.1%
- cytotoxicity at 72 h (in vitro): 106%

SMILES: CCn1c(=O)c(-c2cc(NC(=O)Nc3ccccc3)c(F)cc2Br)cc2cnc(NC)cc21 [DCC-2618]
- Emax [1, 4]: 65.4%
- EC50 [1, 5]: 12.6 µM
- CC50 at 72 h (in vitro): 11.2 µM
- cytotoxicity at 72 h (in vitro): 48.5%

SMILES: CN(C)[C@@H](CCOc1cccc2ccccc12)c1ccccc1 [Dapoxetine]
- EC50 [1, 2]: 10 µM
- Emax [1, 3]: 82.6%
- cytotoxicity at 72 h (in vitro): 32%

SMILES: CCN(CC)CCN(Cc1ccc(-c2ccc(C(F)(F)F)cc2)cc1)C(=O)Cn1c(SCc2ccc(F)cc2)nc(=O)c2c1CCC2 [Darapladib]
- EC50 [1, 2]: 2.82 µM
- Emax [1, 3]: 75.1%
- CC50 (in vitro): 11.2 µM
- cytotoxicity (in vitro): 102%

SMILES: CNCCCN1c2ccccc2CCc2ccccc21 [Desipramine hydrochloride]
- EC50 [1, 2]: 11.2 µM
- Emax [1, 3]: 43.7%
- CC50 (in vitro): 5.01 µM
- cytotoxicity (in vitro): 9.2%

SMILES: CCCCCCC(C)(C)c1cc(O)c2c(c1)OC(C)(C)[C@H]1CC=C(CO)C[C@H]21 [Dexanabinol, reference compound]
- EC50 [1, 6]: 10 µM
- Emax [1, 7]: 111%
- cytotoxicity (in vitro): < 30%

SMILES: CCCCOc1cc(C(=O)NCCN(CC)CC)c2ccccc2n1 [Dibucaine]
- Emax [1, 4]: 61.8%
- EC50 [1, 5]: 12.6 µM
- cytotoxicity at 72 h (in vitro): 0%

SMILES: CC(C(O)c1ccccc1)N(C)CCOC(c1ccccc1)c1ccccc1 (stereo not shown) [Difeterol, reference compound]
- EC50 [1, 6]: 10 µM
- Emax [1, 7]: 113%
- cytotoxicity at 72 h (in vitro): < 30%

SMILES: CC(C)[C@@]1(NC(=O)[C@@H]2C[C@@H]3c4cccc5[nH]cc(c45)C[C@H]3N(C)C2)O[C@@]2(O)[C@@H]3CCCN3C(=O)[C@H](Cc3ccccc3)N2C1=O [Dihydroergocristine]
- Emax [1, 4]: 32%
- EC50 [1, 5]: 14.1 µM
- CC50 (in vitro): 15.8 µM
- cytotoxicity (in vitro): 11.5%

SMILES: CN(C)CC/C=C1\c2ccccc2CSc2ccccc21 [Dosulepin hydrochloride]
- Emax [1, 4]: 30.8%
- EC50 [1, 5]: 14.1 µM
- CC50 (in vitro): 12.6 µM
- cytotoxicity (in vitro): 17.2%

SMILES: COc1cc2nc(N3CCN(C(=O)C4COc5ccccc5O4)CC3)nc(N)c2cc1OC (stereo not shown) [Doxazosin mesylate]
- Emax [1, 4]: 86.6%
- EC50 [1, 5]: 14.1 µM
- cytotoxicity (in vitro): 0%

SMILES: O=c1c2ccccc2[se]n1-c1ccccc1 [Ebselen]
- EC50 [1, 2]: 11.2 µM
- Emax [1, 3]: 38.1%
- cytotoxicity at 72 h (in vitro): 0%

SMILES: O=C1Nc2ccc(Cl)cc2[C@@](C#CC2CC2)(C(F)(F)F)O1 [Efavirenz]
- Emax [1, 4]: 90.6%
- EC50 [1, 5]: 14.1 µM
- cytotoxicity (in vitro): 24.3%

SMILES: CCNCCc1ccc(CN(CC)c2cc(OC)ccc2[C@@H]2CCc3cc(O)ccc3C2)cc1 [Elacestrant]
- EC50 [1, 2]: 3.98 µM
- Emax [1, 3]: 104%
- CC50 at 72 h (in vitro): 12.6 µM
- cytotoxicity at 72 h (in vitro): 104%

SMILES: CSc1ccc(C(=O)/C=C/c2cc(C)c(OC(C)(C)C(=O)O)c(C)c2)cc1 [Elafibranor]
- Emax [1, 4]: 55.7%
- EC50 [1, 5]: 19.9 µM
- cytotoxicity at 72 h (in vitro): 0%

SMILES: Fc1ccc(C(c2ccc(F)cc2)N2CCN(C/C=C/c3ccccc3)CC2)cc1 [Flunarizine, reference compound]
- Emax [1, 7]: 94.1%
- cytotoxicity (in vitro): < 30%

SMILES: CC(CN1c2ccccc2Sc2ccc(S(=O)(=O)N(C)C)cc21)N(C)C (stereo not shown) [Fonazine]
- EC50 [1, 2]: 11.2 µM
- Emax [1, 3]: 36.6%
- cytotoxicity at 72 h (in vitro): 0%

SMILES: Cc1ccc(NC(=O)Nc2cc(C(F)(F)F)ccc2F)cc1Nc1ccc2c(c1)NC(=O)/C2=C\c1ccc[nH]1 [GNF-5837]
- EC50 [1, 2]: 3.16 µM
- Emax [1, 3]: 84%
- CC50 (in vitro): 8.91 µM
- cytotoxicity (in vitro): 61.4%

SMILES: CCCc1cc(C)[nH]c(=O)c1CNC(=O)c1cc(-c2ccnc(N3CCN(C)CC3)c2)cc2c1cnn2C(C)C [GSK-343]
- Emax [1, 4]: 51.7%
- EC50 [1, 5]: 14.1 µM
- CC50 (in vitro): 10 µM
- cytotoxicity (in vitro): 16.6%

SMILES: CCn1c(-c2nonc2N)nc2cnc(Oc3cccc(NC(=O)c4ccc(OCCN5CCOCC5)cc4)c3)cc21 [GSK-269962A]
- EC50 [1, 2]: 7.94 µM
- Emax [1, 3]: 41.8%
- CC50 (in vitro): 2 µM
- cytotoxicity (in vitro): 56.8%

SMILES: CCc1ccc(N(CC(C)C)S(=O)(=O)c2ccc(OCC3CCOCC3)c(CO)c2)cc1 [GSK-2981278]
- Emax [1, 4]: 36%
- EC50 [1, 5]: 14.1 µM
- CC50 at 72 h (in vitro): 12.6 µM
- cytotoxicity at 72 h (in vitro): 51.1%

SMILES: CC(=O)OC[C@]12C[C@H](OC(=O)CC(C)C)C(C)=C[C@H]1O[C@@H]1[C@H](O)[C@@H](O)[C@@]2(C)[C@]12CO2 [HT-2 Toxin]
- CPE % Efficacy [1]: 32.4%
- EC50 ([1]; read-out: CPE EC50): 0.0226 µM
- CC50 (in vitro): 0.13 µM
- cytotoxicity (in vitro): 98%

SMILES: CCCCN(CCCC)CCC(O)c1cc2c(Cl)cc(Cl)cc2c2cc(C(F)(F)F)ccc12 (stereo not shown) [Halofantrine]
- EC50 [1, 2]: 5.62 µM
- Emax [1, 3]: 73.4%
- cytotoxicity (in vitro): 37.6%

SMILES: CN1CCCN(C(c2ccccc2)c2ccc(Cl)cc2)CC1 (stereo not shown) [Homochlorcyclizine]
- EC50 [1, 2]: 10 µM
- Emax [1, 3]: 84.3%
- CC50 (in vitro): 12.6 µM
- cytotoxicity (in vitro): 34.2%

SMILES: COc1cc(O)c2c(c1)[C@H]1O[C@@H]1C[C@H](O)[C@H](O)C(=O)/C=C\C[C@H](C)OC2=O [Hypothemycin]
- Emax [1, 4]: 81.2%
- EC50 [1, 5]: 12.6 µM
- CC50 (in vitro): 12.6 µM
- cytotoxicity (in vitro): 60.1%

SMILES: COc1cc(C(C)=O)ccc1OCCCN1CCC(c2noc3cc(F)ccc23)CC1 [Iloperidone]
- Emax [1, 4]: 108%
- EC50 [1, 5]: 12.6 µM
- CC50 at 72 h (in vitro): 15.8 µM
- cytotoxicity at 72 h (in vitro): 16.4%

SMILES: Cc1ccc(NC(=O)c2ccc(CN3CCN(C)CC3)cc2)cc1Nc1nccc(-c2cccnc2)n1 [Imatinib, reference compound]
- Emax [1, 7]: 119%
- cytotoxicity (in vitro): < 30%

SMILES: CN(C)CCCN1c2ccccc2CCc2ccccc21 [Imipramine]
- Emax [1, 4]: 57.6%
- EC50 [1, 5]: 12.6 µM
- cytotoxicity (in vitro): 0%

SMILES: Cc1cn(CCN2CCN(c3ccccc3-c3cc(C#N)cc(C(=O)NCCCN4CCCC4)c3)CC2)c2ccccc12 [LLY-507]
- EC50 [1, 2]: 3.16 µM
- Emax [1, 3]: 59.6%
- CC50 at 72 h (in vitro): 12.6 µM
- cytotoxicity at 72 h (in vitro): 108%

SMILES: O[C@H]1[C@H]2c3cc4c(cc3CN3CCC(=C[C@@H]1O)[C@H]23)OCO4 [Lycorine hydrochloride]
- EC50 [1, 2]: 0.63 µM
- Emax [1, 3]: 34.6%
- CC50 (in vitro): 3.55 µM
- cytotoxicity (in vitro): 90.6%

SMILES: COc1ccc(-c2csc(NC(=O)[C@H]3CCCCN3S(=O)(=O)c3ccc(C)cc3)n2)cc1 [ML277]
- EC50 [1, 2]: 10 µM
- Emax [1, 3]: 45.4%
- cytotoxicity (in vitro): 0%

SMILES: CN1CCCCC1CCN1c2ccccc2Sc2ccc([S+](C)[O-])cc21 (stereo not shown) [Mesoridazine]
- Emax ([1]; Severe acute respiratory syndrome coronavirus 2, Vero C1008, read-out: CPE % Efficacy): 43.5%
- EC50 ([1]; Severe acute respiratory syndrome coronavirus 2, Vero C1008, read-out: CPE EC50 (uM)): 12.6 µM
- CC50 (in vitro): 15.8 µM
- cytotoxicity (in vitro): 16.1%

SMILES: CN1CCC(CN2c3ccccc3Sc3ccccc32)C1 (stereo not shown) [Methdilazine hydrochloride, reference compound]
- EC50 [1, 6]: 10 µM
- Emax [1, 7]: 86.4%
- cytotoxicity (in vitro): < 30%

SMILES: Clc1ccc2c(c1)N=C(N1CCNCC1)c1ccccc1N2 [N-Desmethylclozapine]
- Emax [1, 4]: 31.1%
- EC50 [1, 5]: 14.1 µM
- CC50 at 72 h (in vitro): 10 µM
- cytotoxicity at 72 h (in vitro): 20.1%

SMILES: Cc1c(O)cccc1C(=O)N[C@@H](CSc1ccccc1)[C@H](O)CN1C[C@H]2CCCC[C@H]2C[C@H]1C(=O)NC(C)(C)C [Nelfinavir Mesylate]
- EC50 [1, 2]: 3.55 µM
- Emax [1, 3]: 106%
- CC50 (in vitro): 12.6 µM
- cytotoxicity (in vitro): 96.9%

SMILES: COC(=O)C1=C(C)NC(C)=C(C(=O)OCCN(C)Cc2ccccc2)C1c1cccc([N+](=O)[O-])c1 (stereo not shown) [Nicardipine]
- Emax [1, 4]: 56.3%
- EC50 [1, 5]: 12.6 µM
- CC50 (in vitro): 12.6 µM
- cytotoxicity (in vitro): 32.8%
